Entries after “also recorded” stand apart in the source; their conditions may differ. Where two headings read alike, the source gives them in different places.
Experiments:
[1] = system: NFkB and interferon signaling in AML/MDS cells; assay: NFkB and interferon signaling in AML/MDS cells; assay type: cell-based; conditions: for NFkB signaling: AML cells
[2] = system: TLR mediated NFkB activity; assay: TLR mediated NFkB activity; assay type: cell-based; conditions: for TLR mediated NFkB signaling: AML cells
AML/MDS cells [3] = assay: Proliferation of AML/MDS cells; assay type: cell-based
AML/MDS cells [4] = assay: Clonogenic potential of AML/MDS cells; assay type: cell-based
UBE2N [5] = molecular target: T1, UBE2N (Homo sapiens, UniProt P61088); assay: Direct binding to UBE2N (Michael-Addition reaction); conditions: through a Michael-Addition reaction
T1 construct: endogenous in cells
T1 sequence (P61088 1-152): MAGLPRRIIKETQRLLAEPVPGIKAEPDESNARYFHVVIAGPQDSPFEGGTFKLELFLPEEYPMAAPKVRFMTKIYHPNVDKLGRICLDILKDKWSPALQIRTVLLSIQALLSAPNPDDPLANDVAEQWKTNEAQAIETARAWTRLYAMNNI

AML cells = assay: Viability of AML cells; assay type: cell-based
MOLM-13 and THP-1 cells = assay: DNA damage in MOLM-13 and THP-1 cells; assay type: cell-based
UBE2N [6] = molecular target: T1, UBE2N; assay: UBE2N ubiquitination at Lysine (K)-92
UBE2N active site mutant = assay: Inhibition of NFkB with UBE2N active site mutant; assay type: cell-based
DDB1 = DDB1 ubiquitination following UBE2N inhibition; assay type: cell-based; conditions: following inhibition of UBE2N
Excerpt: (§1) To identify the molecular basis of UBE2N inhibition, Applicant performed a global ubiquitin screen for changes in ubiquitinated substrates and gene expression profiling by RNA sequencing. For the ubiquitin screen, K63 ubiquinated proteins were immunopreciptated from MDSL cells upon pharmacologic inhibition of UBE2N, followed by mass spectrometry analysis.
(§2) One substrate identified in NSC697923-treated MDSL cells by the ubiquitin screen is DDB1, a component of the CUL4-CRBN E3 ligase complex targeted by Lenalidomide (LEN). […] LEN has shown encouraging results in del(5q) MDS patients (“deletion 5q (del 5q) MDS” in which part of chromosome 5 is missing), but its effects are limited in other cytogenetic subtypes of MDS or AML. Therefore, the identification of molecular targets that can enhance or extend the use of LEN in a broader spectrum of patients is desired Applicant explored the possibility of a cooperative effect of LEN and NSC697923 on MDS/AML cells. […] As such, UBE2N is a promising target for extending the use of LEN to other subtypes of MDS/AML.

MDS/AML cells [7] = assay: Targeting MDS/AML cells in vivo
primary MDS stem cells = assay: Clonogenic potential of primary MDS stem cells; assay type: cell-based
AML/MDS cells [8] = assay: Cell cycle of AML/MDS cells; assay type: cell-based
AML/MDS cells [9] = assay: Cell death of AML/MDS cells; assay type: cell-based
AML/MDS cells [10] = assay: DNA damage in AML/MDS cells; assay type: cell-based
normal HSPC = assay: Clonogenic capacity of normal HSPC; assay type: cell-based
MDS/AML cells [11] = assay: Cellular metabolic activity of MDS/AML cells; assay type: cell-based
TRAF6 = TRAF6 protein expression; assay type: cell-based; conditions: rescued by inhibition of the proteasome
MDSL cells [12] = assay: RNA sequencing / expression in MDSL cells; assay type: cell-based
Excerpt: as §1

MDSL cells [13] = assay: Global ubiquitin screen in MDSL cells; assay type: cell-based
Excerpt: as §1

[14] = system: MDS/AML cell lines and patient samples; assay: Combination with lenalidomide on MDS/AML cell lines and patient samples in vitro; assay type: cell-based; conditions: MDS/AML cells
Excerpt: as §2

normal CD34+ cells = assay: Function of normal CD34+ cells in the presence of lenalidomide; assay type: cell-based

direct binding to UBE2N (UBE2N [5]) | SMILES | NFkB signaling [1] | TLR mediated NFkB signaling [2] | proliferation (AML/MDS cells [3]; AML cells) | clonogenic potential (AML/MDS cells [4]; AML cells) | viability (AML cells) | DNA damage (MOLM-13 and THP-1 cells) | UBE2N ubiquination at Lysine (K)-92 (UBE2N [6]) | sensitivity of UBE2N active site mutant to inhibition of NFkB (UBE2N active site mutant) | DDB1 ubiquination (DDB1) | also measured
directly bind UBE2N | Cc1ccc(S(=O)(=O)/C=C/C#N)cc1 [UC64] | inhibits NFkB signaling | inhibits TLR mediated NFkB signaling | reduces their proliferation | reduces their clonogenic potential | reduces their viability | does not cause DNA damage | reduces UBE2N ubiquination at Lysine (K)-92 | less sensitive | differentially ubiquinated | –
directly bind UBE2N | Cc1ccc(S(=O)(=O)c2ccc([N+](=O)[O-])o2)cc1 [UC65] | inhibits NFkB signaling | inhibits TLR mediated NFkB signaling | reduces their proliferation | reduces their clonogenic potential | reduces their viability | does not cause DNA damage | reduces UBE2N ubiquination at Lysine (K)-92 | less sensitive | differentially ubiquinated | effectiveness against MDS/AML cells in vivo (MDS/AML cells [7]): effective against targeting MDS/AML cells in vivo; clonogenic potential (primary MDS stem cells): reduces their clonogenic potential
– | Cc1ccc(S(=O)(=O)c2ccc([N+](=O)[O-])o2)cc1 [NSC697923] | – | – | – | – | – | – | – | – | – | NFkB and interferon signaling ([1]; AML/MDS cells, listed as NSC23): inhibits NKkB and interferon signaling; also recorded: inhibits NFkB and interferon signaling; TLR mediated NFkB activity [2]: inhibits TLR mediated NFkB activity; proliferation (AML/MDS cells [3]; AML/MDS cells): reduces proliferation; clonogenic potential (AML/MDS cells [4]; AML/MDS cells): reduces proliferation and clonogenic potential; clonogenic capacity (AML/MDS cells [4]; MDSL/AML cell lines and primary cells): reduced the clonogenic capacity; cell cycle arrest (AML/MDS cells [8]): induced a G2/M cell cycle arrest; cell cycle arrest (AML/MDS cells [8]; listed as NSC23): induces cell cycle arrest in mitosis; cell death (AML/MDS cells [9]): increased cell death; cell death (AML/MDS cells [9]; listed as NSC23): cell death; DNA damage (AML/MDS cells [10]): induces DNA damage; effect on normal HSPC (clonogenic capacity) (normal HSPC): not significantly affecting normal HSPC; cellular metabolic activity (MDS/AML cells [11]): reduced the cellular metabolic activity; TRAF6 protein expression (TRAF6): dramatic loss of TRAF6 protein expression; expression of APC/CDC20 substrates (i.e., cyclin B1) (MDSL cells [12]): increased expression of APC/CDC20 substrates; gene expression changes by RNA sequencing (MDSL cells [12]; MDSL cells): expression changes in genes involved in mRNA processing, cell cycle, and glycolysis; protein ubiquination (MDSL cells [13]): Differential protein ubiquination
– | Nc1cccc2c1CN(C1CCC(=O)NC1=O)C2=O (stereo not shown) [lenalidomide] | – | – | – | – | – | – | – | – | – | cytotoxic effects of lenalidomide with UBE2N inhibition [14]: enhances the cytotoxic effects; function of normal CD34+ cells with UBE2N inhibition in the presence of lenalidomide (normal CD34+ cells): does not affect the function of normal CD34+ cells

From US11547696B2, “Methods and compositions for treatment of myelodysplastic syndromes and/or acute myeloid leukemias” (Children's Hospital Medical Center, priority 2016, dated 2023)
